Each structure is given as a SMILES string. Some results are limits rather than exact numbers.

The nature of the series: Metabolic stability in rat liver microsomes assessed as half life. The class given is ADME, Microsome.
In the case of `Cc1ccc2c(NCc3ccc(NC(=O)c4ccc(F)cc4)cc3)nc(N3CCNC(C)(C)C3)nc2c1`, the half-life (in general, the time in which the quantity being followed falls by half) is 3 min.

Turning to `CNc1nc(NCc2ccc(NC(=O)c3ccc(Cl)nc3)cc2)c2c(C)cccc2n1`, the half-life was 2 min.

For `CNc1nc(NCc2ccc(NC(=O)c3ccc(Cl)cc3)cc2)c2ccc(C)cc2n1`, the half-life is 18 min.

As to `CNc1nc(NCc2ccc(NC(=O)c3ccc(Cl)cc3)cc2)c2cc(C)ccc2n1`, the half-life came to 6 min.

For `Cc1ccc2c(NCc3ccc(NC(=O)c4ccc(F)cc4)cc3)nc(N3CCOCC3)nc2c1`, the half-life worked out at 6 min.

As for `CCc1ccc2c(NCc3ccc(NC(=O)c4ccc(F)cc4)cc3)nc(N(C)C)nc2c1`, the half-life was determined as 6 min.

`C=Cc1ccc2c(NCc3ccc(NC(=O)c4ccc(F)cc4)cc3)nc(N(C)C)nc2c1`: the half-life was found to be 6 min.

Regarding `CNc1nc(NCc2ccc(NC(=O)c3ccc(Cl)cc3)cc2)c2c(C)cccc2n1`, the half-life stood at 12 min.

Take `CC(=O)c1ccc2c(NCc3ccc(NC(=O)c4ccc(F)cc4)cc3)nc(N(C)C)nc2c1`: the half-life worked out at 2 min.

Turning to `CNc1nc(NCc2ccc(NC(=O)c3ccc(F)cc3)cc2)c2cc(C)ccc2n1`, the half-life came to 6 min.

In the case of `CNc1nc(NCc2ccc(NC(=O)c3cccc(Cl)c3)cc2)c2ccccc2n1`, the half-life stood at 15 min.

For `CNc1nc(NCc2ccc(NC(=O)c3ccc(Cl)nc3)cc2)c2cccc(C)c2n1`, the half-life came out at 22 min.

As for `CN(C)Cc1ccc2c(NCc3ccc(NC(=O)c4ccc(F)cc4)cc3)nc(N(C)C)nc2c1`, the half-life was 3 min.

With `Cc1ccc2c(NCc3ccc(NC(=O)c4ccc(F)cc4)cc3)nc(N3CCN(C)CC3)nc2c1`, the half-life came to 3 min.

`Cc1ccc2c(NCc3ccc(NC(=O)c4ccc(F)cc4)cc3)nc(N3CCC3)nc2c1`: the half-life was 7 min.

Regarding `CNc1nc(NCc2ccc(NC(=O)c3ccc(-c4ccccc4)cc3)cc2)c2ccccc2n1`, the half-life turned out to be 16 min.

On to `CNc1nc(NCc2ccc(NC(=O)c3ccc(Cl)nc3)cc2)c2cc(C)ccc2n1`, for which the half-life was 13 min.

Turning to `Cc1ccc2c(NCc3ccc(NC(=O)c4ccc(F)cc4)cc3)nc(N(C)C)nc2c1`, the half-life is 12 min.

Regarding `CNc1nc(NCc2ccc(NC(=O)c3ccc(Cl)nc3)cc2)c2ccccc2n1`, the half-life was determined as 17 min.

On to `CNc1nc(NCc2ccc(NC(=O)c3ccc(F)cc3)cc2)c2cccc(C)c2n1`, for which the half-life was determined as 10 min.

Turning to `CN(C)c1nc(NCc2ccc(NC(=O)c3ccc(F)cc3)cc2)c2ccc(C#N)cc2n1`, the half-life was found to be 11 min.

For `CCCNc1nc(NCc2ccc(NC(=O)c3ccc(F)cc3)cc2)c2ccc(C)cc2n1`, the half-life was 6 min.

Turning to `Cc1ccc2c(NCc3ccc(NC(=O)c4ccc(F)cc4)cc3)nc(N3CCNCC3)nc2c1`, the half-life turned out to be 5 min.

Take `CNc1nc(NCc2ccc(NC(=O)c3ccc(C)cc3)cc2)c2ccccc2n1`: the half-life was determined as 16 min.

For the compound `CNc1nc(NCc2ccc(NC(=O)c3ccc(Cl)cc3)cc2)c2ccccc2n1`, the half-life is 30 min.

For `CNc1nc(NCc2ccc(NC(=O)c3ccc(Cl)cc3)cc2)c2cccc(C)c2n1`, the half-life amounted to 11 min.

On to `Cc1ccc2c(NCc3ccc(NC(=O)c4ccc(F)cc4)cc3)nc(N3CCCC3)nc2c1`, for which the half-life is 2 min.

Take `CNc1nc(NCc2ccc(NC(=O)c3ccc(F)cc3)cc2)c2c(C)cccc2n1`: the half-life worked out at 15 min.

For `CC(O)c1ccc2c(NCc3ccc(NC(=O)c4ccc(F)cc4)cc3)nc(N(C)C)nc2c1` (racemic), the half-life amounted to 6 min.

On to `Cc1ccc2c(NCc3ccc(NC(=O)c4ccc(F)cc4)cc3)nc(N3CCCCC3)nc2c1`, for which the half-life came to 3 min.

`CNc1nc(NCc2ccc(NC(=O)c3ccc(F)cc3)cc2)c2ccccc2n1`: the half-life is 21 min.

In the case of `CN(C)c1nc(NCc2ccc(NC(=O)c3ccc(F)cc3)cc2)c2ccc(CO)cc2n1`, the half-life is 22 min.

On to `CNc1nc(NCc2ccc(NC(=O)c3ccc(C#N)cc3)cc2)c2ccccc2n1`, for which the half-life stood at 10 min.

As for `Cc1ccc2c(NCc3ccc(NC(=O)c4ccc(F)cc4)cc3)nc(N3CCN[C@H](C)C3)nc2c1`, the half-life turned out to be 4 min.

Consider `CNc1nc(NCc2ccc(NC(=O)c3ccc(C(F)(F)F)cc3)cc2)c2ccccc2n1`, for which the half-life came out at 30 min.

With `CN(C)c1nc(NCc2ccc(NC(=O)c3ccc(F)cc3)cc2)c2ccc(C=O)cc2n1`, the half-life was 3 min.

`CNc1nc(NCc2ccc(NC(=O)c3ccc(F)cc3)cc2)c2ccc(C)cc2n1`: the half-life is more than 30 min.

Take `CNc1nc(NCc2ccc(NC(=O)c3ccc(Cl)nc3)cc2)c2ccc(C)cc2n1`: the half-life was 8 min.

The record behind these values is ChEMBL document CHEMBL1156802, “Design and synthesis of novel diaminoquinazolines with in vivo efficacy for beta-catenin/T-cell transcriptional factor 4 pathway inhibition” (J Med Chem, 2010).
